Reference: the METLIN SMRT retention time set (Domingo-Almenara et al. 2019)

assay: gradient 5% acetonitrile 3 min, to 50% in 2 min, to 85% in 15 min, held 3 min, 100 µL/min; settings: column: Zorbax Extend-C18 2.1 x 50 mm; eluents: water / acetonitrile, 0.1% formic acid
Outline: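 Data were gathered over 3 months by HPLC coupled to a quadrupole time-of-flight mass spectrometer, operated in positive and negative ionization mode. Mixtures of ~100 pure standards ran on a Zorbax Extend-C18 column (2.1 × 50 mm, 1.8 μm) at 100 μL/min, with water and acetonitrile each containing 0.1% formic acid and dead and dwell volumes of 40 μL and 900 μL. Retention time was read from adduct peaks picked by computer and checked manually.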

SMILES	RP-LC retention time [s]
Cc1cccc2nc(-c3cccc(Cl)c3)c(Nc3ccc4c(c3)OCCO4)n12	717
Cc1ccccc1CNC(=O)Cn1c(C)cc(-c2nnc(-c3ccccc3)o2)c1C	957
CCOc1ccc(NC2=NS(=O)(=O)C(c3ccc(OC)cc3)=C2C)cc1	940
O=c1cc(CSc2nnc(-c3cccc(Cl)c3)o2)nc2sccn12	832
Cc1oc2c(c1C(=O)NCc1cccc(Br)c1)C1=NCCN1C=N2	654
CC(=O)Nc1onc(C)c1-c1ccc(C)c(S(=O)(=O)NCc2ccc(N(C)C)cc2)c1	1170
O=C1CCN(S(=O)(=O)c2ccccc2)CCCN(S(=O)(=O)c2cccc(F)c2)CCN1	795
CC(C)(C)c1ccc(OCC(=O)N(Cc2ccc(Br)o2)C2CCS(=O)(=O)C2)cc1 (centres undefined)	1060
c1ccc(CN2CCN(Cc3cnoc3-c3ccccc3)CC2)cc1	689
Cc1cccc(Cn2nc3n(Cc4ccc(F)cc4)c(=O)c4nn(C)cc4n3c2=O)c1	940
Cc1nc(-c2cnccn2)n(CC(=O)Nc2cccc(C(C)C)c2)c(=O)c1C	855
CCOc1ccc(NC(=O)Cn2c(=O)cc(-c3nc(C)no3)c3ccccc32)cc1	862
CCn1c(=O)c(C)nc2cc(-c3noc(Cc4ccccc4Br)n3)ccc21	1070
Cc1noc([C@@H]2CN(S(=O)(=O)c3c(C)noc3C)C[C@H]2C(N)=O)n1	667
Cc1ccc(C)c(C(=O)CCC(=O)O)c1	818
CCOCC(=O)N1CC(c2nc(-c3ccccc3)no2)C2(CCOCC2)C1 (centres undefined)	766
COCCn1nnnc1C1CC2(CCOCC2)C(=O)N1Cc1ccc(Cl)cc1 (centres undefined)	904
Cc1nc(CC(=O)Nc2cc(F)cc(F)c2)cs1	796
O=C(c1ccc(CS(=O)c2ccc(Br)cc2)o1)N1CCN(c2ccccn2)CC1 (centres undefined)	580
COc1ccc(-n2ccn3cc(-c4ccc(F)cc4F)nc3c2=O)cc1	716
CC1CNc2c(cccc2S(=O)(=O)N[C@@H](CCCN=C(N)N)C(=O)N2CC[C@@H](C)C[C@@H]2C(=O)O)C1 (some centres undefined)	822
O=C(C1=CN(c2cc(F)cc(F)c2)c2cc(Cl)ccc2S1(=O)=O)N1CCCC1	861

SMILES	RP-LC retention time [s]
O=C(CCCN1C(=O)c2cccc3cccc(c23)C1=O)Nc1ccon1	723
Cc1cc(=O)n(CC(=O)Nc2ccc(Br)cc2F)c(N2CCN(c3ccccc3)CC2)n1	978
CCOC(=O)c1c(CN2CCCC2)n(C)c2cc(-c3ccncc3)c3c(c12)CN(C)CO3	730
COCCC1CCN(C(=O)CN(C)C(=O)COc2ccccc2)CC1	694
c1ccc(COCCc2noc(C3CCCN3)n2)cc1 (centres undefined)	614
Cc1ccn2c(Nc3ccccc3C)c(-c3ccc(N(C)C)cc3)nc2c1	809
Cc1ccc(S(=O)(=O)c2nnn3c2nc(N2CCN(c4ccccn4)CC2)c2ccccc23)cc1	711
CCN1CCN(c2c(C(=O)c3ccc(C)c(C)c3)cnc3cc(OC)c(OC)cc23)CC1	579
CCCCOC(=O)c1[nH]c2c(c1C)C(=O)CC(c1cc(OC)c(OC)c(OC)c1)C2 (centres undefined)	1020
COc1cccc(CC(=O)N2CCC3(CC2)NC(=O)c2ccc(F)cc2N3C)c1	756
Cc1noc(-c2cc(=O)n(CC(=O)NCc3ccc(F)cc3Cl)c3ccccc23)n1	891
Cc1ccsc1CN1CCC(n2c(C)cnc2-c2ccncc2)C1 (centres undefined)	506
COc1ccc(C2=NN(S(C)(=O)=O)C(c3ccc4nccnc4c3)C2)c(F)c1 (centres undefined)	740
O=C(O)Cn1c(C(=O)Nc2nc(-c3ccccc3Cl)cs2)cc2ccccc21	1130
Cc1ccsc1CN1CCc2nc(N3CCN(c4ccccc4F)CC3)ncc2C1	780
Cn1cc(CN2C[C@@H](CO)[C@H](NC(=O)C3CCC3)C2)c2ccccc21	615
CCOC(=O)c1cccc(N2C=C(C(=O)N3CCCC3)S(=O)(=O)c3ccc(Cl)cc32)c1	901
N=C(N)n1c(N)nc2ccccc2c1=O	613
COCCCNC(=O)C1CCN(C(=O)c2cc3oc(C)cc3n2Cc2c(F)cccc2Cl)CC1	826
CCCS(=O)(=O)Nc1cccc(-c2cn3ccccc3n2)c1	608
O=C(c1ccnnc1)N1CC(F)(F)C[C@H]1c1nnc(-c2ccccc2)o1	696
O=c1c2cnn(-c3ccc(F)cc3)c2ncn1Cc1nc(-c2ccccc2)no1	1010

Continued, values first:

RP-LC retention time [s]	SMILES
799	CCc1ccccc1NC(=O)C1CCN(S(=O)(=O)c2cc(C(=O)N3CCCC3)cs2)CC1
858	CCOc1ccc(NC(=O)N2CCC3(CC2)NC(=O)c2cc(Cl)ccc2N3C)cc1
818	O=C(Nc1cccn2c(C3CCC3)nnc12)c1cc2ccccc2[nH]1
605	O=C(c1cc(-c2cccnc2)n[nH]1)N1CCN(C(=O)c2ccc(Br)o2)CC1
784	O=C(c1ccc(F)cc1F)N1CCN(c2cc(-c3cccs3)[nH]n2)CC1
951	Cc1cc(C)n(Cc2nc(-c3ccc(NC(=O)c4sccc4C)cc3)oc2C)n1
625	O=C(Nc1ccc(-c2nnc3n2CCCC3)cc1)c1cc(C2CC2)[nH]n1
606	Cc1ccc(CNC(=O)C2(C)Cn3nc(C(=O)NCCN4CCCCC4)cc3C(=O)N2C)cc1 (centres undefined)
782	Cc1csc(NC(=O)C2CCN(S(=O)(=O)c3ccc4c(c3)sc(=O)n4C)CC2)n1
595	Cc1cc(Nc2ccc(NC(=O)Cc3cccs3)cc2)nc(N2CCCC2)n1
1020	Cc1ccc(Cn2c(N3CCCC(C(=O)NC4CCCCC4)C3)nc3ccsc3c2=O)cc1 (centres undefined)
962	Cc1occc1-c1nnc(SCC(=O)N2CCCc3ccccc32)o1
1050	CC1CCCCN1c1nc(-c2ccc(C(C)(C)C)cc2)nc2ccccc12 (centres undefined)
949	Cc1nn(-c2ccc(F)cc2)c(C)c1S(=O)(=O)N1CCC(C(=O)Nc2ccccc2F)CC1
548	CCc1nnc2cc(N3CCN(C(=O)Nc4ccccc4Cl)CC3)cnn12
626	COc1ccc(CC(=O)NC2CCN(c3nnc4ccccn34)CC2)cc1
843	Cc1cc(C)cc(NC(=O)C2CCN(S(=O)(=O)c3cc(C(=O)N4CCCC4)n(C)c3)CC2)c1
796	Cc1oc(-c2[nH]ncc2C(=O)N2CCCC2)cc1S(=O)(=O)NCc1cccc(Cl)c1
651	O=C(Cn1cnc2nc(N3CCC(C(=O)NC4CC4)CC3)sc2c1=O)Nc1ccc(F)cc1F
893	CCC1Oc2ccc(S(=O)(=O)N3CCC(C(=O)NCc4cccc(C)c4)CC3)cc2NC1=O (centres undefined)
